Test results: publication PMC9944328 (Nature Communications, 2023)

Tested on: SSTR2 mutants
Experiment: SSTRs Gi-mediated cAMP inhibition, GloSensor, HEK293, 5 μM forskolin, 15 min room temperature (SSTR2 mutants)
Assay type: cell-based, human
Details: for Fold of WT: Gi signaling EC50
Procedure: The levels of the intracellular 3′, 5′-cyclic AMP (cAMP) were measured by the GloSensor cAMP assay (Promega) as described in the previous studies[28],[41] which has been widely used. The human full-length SSTRs and mutants were cloned into the pcDNA3.1+ vector with a HA signal sequence followed by a Flag tag at the N-terminus. HEK293 cells (ATCC, CRL-1573) were seeded into 6-well microplates at a density of 1.0 × 10^6 cells/well and cultured for 24 h at 37 °C with 5% CO2. Cells were then co-transfected with SSTR wild-type or mutants and GloSensor plasmids. After 24 h of transfection, the cells were dissociated with TrypLE™ Express Enzyme (1X) (Thermo Fisher Scientific) and collected by centrifugation at 500 × g for 5 min. Then the collected cells were suspended in Hank’s balanced salt solution [HBSS (Thermo Fisher Scientific)] supplemented with […] (YEASEN), and then the suspension cells were seeded into 96-well plates with 90 μl/well. After incubating at room temperature for 40 min, 5 μM forskolin and ligands diluted in HBSS were added to each well and the plates were incubated at room temperature for 15 min. […] were measured using the Synergy H1 microplate reader (BioTek) and the data presented are means of at least three independent experiments.

[1] = Gi signaling, SSTR2 D295(7.36)A, n=3
[2] = Gi signaling, SSTR2 F127(3.37)A, n=3
[3] = Gi signaling, SSTR2 F208(5.38)A, n=3
[4] = Gi signaling, SSTR2 F265(6.44)A, n=3
[5] = Gi signaling, SSTR2 F294(7.35)A, n=3
[6] = Gi signaling, SSTR2 I130(3.40)A, n=3
[7] = Gi signaling, SSTR2 I195(45.52)A, n=3
[8] = Gi signaling, SSTR2 I284ECL3A, n=3
[9] = Gi signaling, SSTR2 K291(7.32)A, n=3
[10] = Gi signaling, SSTR2 L99(2.60)A, n=3
[11] = Gi signaling, SSTR2 N276(6.55)A, n=3
[12] = Gi signaling, SSTR2 P220(5.50)A, n=3
[13] = Gi signaling, SSTR2 Q102(2.63)A, n=3
[14] = Gi signaling, SSTR2 T194(45.51)A, n=3
[15] = Gi signaling, SSTR2 V103(2.64)A, n=3
[16] = Gi signaling, SSTR2 W269(6.48)A, n=3
[17] = Gi signaling, SSTR2 Y50(1.39)A, n=3
[18] = Gi signaling, SSTR2 Y205(5.35)A, n=3
[19] = Gi signaling, SSTR2 Y302(7.43)A, n=3

## N#Cc1cccc(-c2ccc3ncc(-c4cc(F)cc(F)c4)c(N4CCC(N)CC4)c3c2)c1O [paltusotine]
D295(7.36) substituted with a bulkier side chain, SSTR2
  Activation potency of mutant: reduced the activation potency
D295A-1 (run 1)
  Bottom (best-fit value), cAMP inhibition: -5.811
  LogEC50 (best-fit value), cAMP inhibition: -7.797
  Span (best-fit value), cAMP inhibition: 125.1
  Top (best-fit value), cAMP inhibition: 119.3
D295A-2 (run 2)
  Bottom (best-fit value), cAMP inhibition: -4.778
  LogEC50 (best-fit value), cAMP inhibition: -7.798
  Span (best-fit value), cAMP inhibition: 119.6
  Top (best-fit value), cAMP inhibition: 114.8
D295A-3 (run 3)
  Bottom (best-fit value), cAMP inhibition: -4.901
  LogEC50 (best-fit value), cAMP inhibition: -7.743
  Span (best-fit value), cAMP inhibition: 121.4
  Top (best-fit value), cAMP inhibition: 116.5
D295F, run 1
  Bottom (best-fit): -4.815
  LogEC50: -9.49
  Span (best-fit): 83.08
  Top (best-fit): 78.27
D295F, run 2
  Bottom (best-fit): -4.16
  LogEC50: -9.689
  Span (best-fit): 84.37
  Top (best-fit): 80.21
D295F, run 3
  Bottom (best-fit): 9.942
  LogEC50: -8.808
  Span (best-fit): 67.74
  Top (best-fit): 77.68
F208A-1 (run 1)
  Bottom (best-fit value): 6.193
  LogEC50 (best-fit value): -7.826
  Span (best-fit value): 90.63
  Top (best-fit value): 96.82
F208A-2 (run 2)
  Bottom (best-fit value): 3.33
  LogEC50 (best-fit value): -7.007
  Span (best-fit value): 88.37
  Top (best-fit value): 91.7
F208A-3 (run 3)
  Bottom (best-fit value): -2.358
  LogEC50 (best-fit value): -7.101
  Span (best-fit value): 89.17
  Top (best-fit value): 86.81
F265A-1 (run 1)
  Bottom (best-fit value): -8.311
  LogEC50 (best-fit value): -7.946
  Span (best-fit value): 113.6
  Top (best-fit value): 105.3
F265A-2 (run 2)
  Bottom (best-fit value): -6.152
  LogEC50 (best-fit value): -7.834
  Span (best-fit value): 121
  Top (best-fit value): 114.8
F265A-3 (run 3)
  Bottom (best-fit value): -8.585
  LogEC50 (best-fit value): -8.008
  Span (best-fit value): 129.6
  Top (best-fit value): 121
F272A-1 (run 1)
  Bottom (best-fit value): 9.906
  LogEC50 (best-fit value), cAMP inhibition: -7.753
  Span (best-fit value), cAMP inhibition: 47.19
  Top (best-fit value): 57.1
F272A-2 (run 2)
  Bottom (best-fit value): 0.969
  LogEC50 (best-fit value), cAMP inhibition: -7.573
  Span (best-fit value), cAMP inhibition: 51.72
  Top (best-fit value): 52.69
F272A-3 (run 3)
  Bottom (best-fit value): 2.026
  LogEC50 (best-fit value), cAMP inhibition: -6.838
  Span (best-fit value), cAMP inhibition: 59.81
  Top (best-fit value): 61.84
F294A-1 (run 1)
  Bottom (best-fit value), cAMP inhibition: 3.955
  LogEC50 (best-fit value), cAMP inhibition: -8.447
  Span (best-fit value), cAMP inhibition: 85.58
  Top (best-fit value), cAMP inhibition: 89.53
F294A-2 (run 2)
  Bottom (best-fit value), cAMP inhibition: -11.05
  LogEC50 (best-fit value), cAMP inhibition: -8.376
  Span (best-fit value), cAMP inhibition: 101.1
  Top (best-fit value), cAMP inhibition: 90.09
F294A-3 (run 3)
  Bottom (best-fit value), cAMP inhibition: 15.03
  LogEC50 (best-fit value), cAMP inhibition: -9.824
  Span (best-fit value), cAMP inhibition: 106.4
  Top (best-fit value), cAMP inhibition: 121.4
F294Y, run 1
  Bottom (best-fit): 11.7
  LogEC50: -9.133
  Span (best-fit): 95.55
  Top (best-fit): 107.3
F294Y, run 2
  Bottom (best-fit): 3.363
  LogEC50: -9.003
  Span (best-fit): 99.71
  Top (best-fit): 103.1
F294Y, run 3
  Bottom (best-fit): -9.817
  LogEC50: -9.17
  Span (best-fit): 128.4
  Top (best-fit): 118.6
SSTR2 D295(7.36)A
  Fold of WT: 1.30
SSTR2 F127(3.37)A
  Fold of WT: 0.54
SSTR2 F208(5.38)A
  Fold of WT: 34.16
SSTR2 F265(6.44)A
  Fold of WT: 6.35
SSTR2 F272A
  Fold of WT: 33.58
SSTR2 F294(7.35)A
  Fold of WT: 1.40
SSTR2 I130(3.40)A
  Fold of WT: 10.09
SSTR2 I195(45.52)A
  Fold of WT: 44.36
SSTR2 K291(7.32)A
  Fold of WT: 2.78
SSTR2 L99(2.60)A
  Fold of WT: 9.09
SSTR2 N276(6.55)A
  Fold of WT: 0.88
SSTR2 P220(5.50)A
  Fold of WT: 1.71
SSTR2 Q102(2.63)A
  Fold of WT: 16.51
SSTR2 T194(45.51)A
  Fold of WT: 51.98
SSTR2 V103(2.64)A
  Fold of WT: 17.54
SSTR2 W269(6.48)A
  Fold of WT: 0.23
SSTR2 Y50(1.39)A
  Fold of WT: 1.90
SSTR2 Y205(5.35)A
  Fold of WT: 0.26
SSTR2 Y302(7.43)A
  Fold of WT: 6.27
[1]
  EC50: 2.46 ± 1.67 nM
  Emax: 107.80±3.11 %WT
[2]
  EC50: 1.02 ± 1.29 nM
  Emax: 107.70±2.32 %WT
[3]
  EC50: 64.2 ± 2.53 nM
  Emax: 91.78±2.89 %WT
[4]
  EC50: 11.9 ± 1.45 nM
  Emax: 113.70±4.57 %WT
Gi signaling, SSTR2 F272A, n=3
  EC50: 63.1 ± 4.1 nM
  Emax: 57.21±2.64 %WT
[5]
  EC50: 2.64 ± 1.26 nM
  Emax: 100.30±10.53 %WT
[6]
  EC50: 19 ± 2.64 nM
  Emax: 116.50±4.76 %WT
[7]
  EC50: 83.4 ± 1.65 nM
  Emax: 106.20±8.71 %WT
[8]
  EC50: 1.22 nM
  Emax: 113.80±5.04 %WT
[9]
  EC50: 5.22 ± 8.67 nM
  Emax: 97.49±6.65 %WT
[10]
  EC50: 17.1 ± 5.16 nM
  Emax: 107.80±2.34 %WT
[11]
  EC50: 1.65 ± 3.51 nM
  Emax: 89.08±4.63 %WT
[12]
  EC50: 3.22 ± 1.38 nM
  Emax: 116.00±5.23 %WT
[13]
  EC50: 31 ± 6.59 nM
  Emax: 97.26±5.45 %WT
[14]
  EC50: 97.7 ± 2.2 nM
  Emax: 85.51±3.13 %WT
[15]
  EC50: 33 ± 2.87 nM
  Emax: 87.33±6.38 %WT
[16]
  EC50: 0.44 nM
  Emax: 98.94±12.38 %WT
[17]
  EC50: 3.6 ± 6.86 nM
  Emax: 106.10±0.90 %WT
[18]
  EC50: 0.48 nM
  Emax: 98.71±2.78 %WT
[19]
  EC50: 11.8 ± 3.12 nM
  Emax: 55.80±2.34 %WT
I195A, run 1, best-fit
  EC50: 83.4 nM
  LogEC50: -7.079
I195A, run 2, best-fit
  EC50: 112 nM
  LogEC50: -6.952
I195A, run 3, best-fit
  EC50: 54.8 nM
  LogEC50: -7.261
I195M, run 1
  Bottom (best-fit): 2.531
  EC50: 8.24 nM
  LogEC50: -8.084
  Span (best-fit): 94.08
  Top (best-fit): 96.61
I195M, run 2
  Bottom (best-fit): -2.367
  EC50: 4.64 nM
  LogEC50: -8.333
  Span (best-fit): 106.3
  Top (best-fit): 103.9
I284A, run 1, best-fit
  EC50: 1.25 nM
  LogEC50: -8.902
I284A, run 2, best-fit
  EC50: 1.14 nM
  LogEC50: -8.945
I284A, run 3, best-fit
  EC50: 1.28 nM
  LogEC50: -8.894
K291A-1 (run 1)
  Bottom (best-fit value), cAMP inhibition: 1.006
  LogEC50 (best-fit value), cAMP inhibition: -8.362
  Span (best-fit value), cAMP inhibition: 92.81
  Top (best-fit value), cAMP inhibition: 93.82
K291A-2 (run 2)
  Bottom (best-fit value), cAMP inhibition: -4.234
  LogEC50 (best-fit value), cAMP inhibition: -8.83
  Span (best-fit value), cAMP inhibition: 114.6
  Top (best-fit value), cAMP inhibition: 110.4
K291A-3 (run 3)
  Bottom (best-fit value), cAMP inhibition: -10.93
  LogEC50 (best-fit value), cAMP inhibition: -8.158
  Span (best-fit value), cAMP inhibition: 99.18
  Top (best-fit value), cAMP inhibition: 88.26
L99A, run 1, best-fit
  EC50: 6.78 nM
  LogEC50: -8.169
L99A, run 2, best-fit
  EC50: 22.1 nM
  LogEC50: -7.655
L99A, run 3, best-fit
  EC50: 22.4 nM
  LogEC50: -7.65
N276A-1 (run 1)
  Bottom (best-fit value), cAMP inhibition: -4.414
  LogEC50 (best-fit value), cAMP inhibition: -9.003
  Span (best-fit value), cAMP inhibition: 102.7
  Top (best-fit value), cAMP inhibition: 98.25
N276A-2 (run 2)
  Bottom (best-fit value), cAMP inhibition: -3.382
  LogEC50 (best-fit value), cAMP inhibition: -8.659
  Span (best-fit value), cAMP inhibition: 88.97
  Top (best-fit value), cAMP inhibition: 85.59
N276A-3 (run 3)
  Bottom (best-fit value), cAMP inhibition: -1.142
  LogEC50 (best-fit value), cAMP inhibition: -8.752
  Span (best-fit value), cAMP inhibition: 84.55
  Top (best-fit value), cAMP inhibition: 83.41
P220A-1 (run 1)
  Bottom (best-fit value): 6.519
  LogEC50 (best-fit value): -8.456
  Span (best-fit value): 112
  Top (best-fit value): 118.5
P220A-2 (run 2)
  Bottom (best-fit value): 4.552
  LogEC50 (best-fit value): -8.51
